# Assay results reported in patent publication US6828321B2, “1,2,4-Benzotriazine oxides as radiosensitizers and selective cytotoxic agents” (priority 1986, dated 2004).
# Where two headings read alike, the source gives them in different places.
# Legend:
# hypoxic cells in culture = assay: Radiosensitivity in vitro: drug concentration giving a sensitizer enhancement ratio of 1.6; type: cell-based; settings: concentration of drug necessary to produce a sensitizer enhancement ratio of 1.6 of hypoxic cells in culture
# Excerpt: The results of assays to determine the concentration of drug necessary to produce a sensitizer enhancement ratio of 1.6 of hypoxic cells in culture are as follows: […]
# HA-1 cells = assay: Hypoxic versus aerobic cytotoxicity from survival curves of HA-1 cells; type: cell-based; settings: for cytotoxicity against hypoxic HA-1 tumor cells in vitro compared to 22 / RHT (Relative Hypoxic Cytoxicity): hypoxic conditions; for RHT (Relative Hypoxic Cytoxicity): ratio of equitoxic concentrations of 22:analog; for RHT (Relative Hypoxic Cytoxicity) / HCR (Hypoxic Cytoxicity Ratio): HA-1 cells; for HCR (Hypoxic Cytoxicity Ratio): ratio of equitoxic concentrations of each analog, hypoxic:aerobic conditions
# [1] = Polarographic half-wave reduction potential; type: physicochemical; settings: Britton & Robinson pH 7.4 buffer, dropping mercury electrode
# [2] = Octanol-water partition coefficient (method of Fujita et al.); type: physicochemical; settings: pH 7.4 buffer
# Solubility = type: physicochemical
# Determination of LD50 = type: in vivo; settings: mouse, in vivo; Balb/c female mice 3 months of age; ip (or iv) injection
# Procedure: (§1) LD50 is determined in BALB/c female mice (weighing 20-25 g) following intraperitoneal (ip) injection, unless the compound tested has low lipophilicity and is very soluble, wherein intravenous (iv) administration is used. LD50 values at 1, 2, 5, and 60 days are determined by administering graded doses of the drug dissolved in physiological saline immediately prior to injection.
# BALB/c female mice = assay: Determination of LD50; type: in vivo; settings: Balb/c female mice 3 months of age; ip (or iv) injection
# Procedure: as §1
# [3] = tested on: aerobic and hypoxic cells in culture (human, mouse, and hamster); assay: Cytotoxicity tests on aerobic and hypoxic cells in culture; type: cell-based
# Procedure: The cells in spinner flasks were gassed for one hour at 37° C. with either air or nitrogen containing 5% CO2 prior to adding the specified amounts of the drug.
# [4] = tested on: Chinese hamster ovary (CHO) cells; assay: Aerobic radiosensitization of CHO cells by hypoxic pre- or post-treatment; type: cell-based; settings: for cell survival after drug treatment alone: 20 μM, hypoxic
# Excerpt: The sensitization was predominantly a change in the slope of the radiation survival curve. Do decreased from 1.34 Gy (95% confidence limits: 1.09-1.76 Gy) to 0.80 Gy (95% confidence limits: 0.73-0.88 Gy), based on least-squares regression analysis of pooled data for the exponential portions of the survival curves for control and treated cells. However, sensitization at low radiation doses was also readily apparent.
# SCCVII tumor [5] = assay: Fractionated radiotherapy of SCCVII tumors (8 x 2.5 Gy in four days); settings: SR 2508 1000 mg/kg before each dose; for effect on growth delay of irradiated tumors: compound 22 0.08 mmole/kg alone before or with HDZ after irradiation, FIG. 6; for effect on radiation response, clonogenic tumor cell survival: compound 22 0.08 mmole/kg alone or with HDZ, FIG. 5
# Excerpt: Our protocol was to use eight doses of 2.5 Gy/dose in four days (irradiating 2×/day). […] We used two different types of controls. […] We assayed the efficacies of the treatments using clonogenic cell survival and also regrowth delay.
# SCCVII tumor [6] = assay: Enhanced tumor cell toxicity using hydralazine; type: in vivo, mice; settings: FIG. 3
# Procedure: For this assay, SCCVII carcinomas in female C3H mice weighing 20-25 g were used. These mice were bred under specific pathogen-free conditions and were 3-4 months old at the beginning of each experiment. The SCCVII tumor was grown intradermally in the flank from an inoculation of 2×10^5 tumor cells taken from the 2nd-8th in vitro passage of the tumor cells after removal from the previous in vivo tumor. Two tumors per mouse were implanted, and were used as subject tumors when they reached a volume of approximately 100 ml. At this point the tumors contained approximately 20% hypoxic cells.
# The amount of cell killing was judged by survival rate of dissected and cultured tumor cells as follows. The tumor-bearing mice were killed 24 hr after irradiation, and tumors were dissected from the skin, cut into several pieces, and made into a fine brei by high-speed chopping with a razor blade attached to a jigsaw. The brei was added to 30 ml of Hank's buffered salt solution (HBSS) containing 0.02% DNase, 0.05% promase, and 0.02% collagenase. The suspension was stirred for 30 min at 37° C., filtered, and centrifuged at 1,600 rmp for 10 min at 4° C. […] Suitable dilutions of this serum plated into 60- or 100-mm polystyrene petri dishes (Lux Scientific Corp) in 5 or 15 ml of medium. After incubation for 13 days, the colonies were fixed and stained, and those containing 50 cells or more were counted. […]
# SCCVII carcinomas = assay: In vivo assay for activity in combination with radiation; set-up: species or system C3H mice; settings: fixed radiation dose 20 Gy, 2 hr after to 3 hr before drug injection; FIG. 2
molecule,measurement,setting,value
CCCCCCCCCCc1ccc2nc(N)n[n+]([O-])c2c1,melting point,,177 °C (dec.)
NC(=O)c1ccc2nc(N)n[n+]([O-])c2c1,melting point,,300 °C
CC(=NO)c1ccc2nc(N)n[n+]([O-])c2c1,melting point,,278 °C (dec.)
"6(7)-methoxy-3-amino-1,2,4-benzotriazine 1,4-dioxide",C1.6,hypoxic cells in culture,˜1.0 mM
"[O-][n+]1nc(O)[n+]([O-])c2ccccc21 [3-hydroxy-1,2,4-benzotriazine 1,4-dioxide]",C1.6,hypoxic cells in culture,˜2.0 mM
"Nc1nc2ccc(Cl)cc2[n+]([O-])n1 [7-chloro-3-amino-1,2,4-benzotriazine 1-oxide]",C1.6,hypoxic cells in culture,3.3 mM
"Nc1n[n+]([O-])c2cc([N+](=O)[O-])ccc2[n+]1[O-] [Compound 14, 7-nitro-3-amino-1,2,4-benzotriazine 1,4-dioxide]",cytotoxicity against hypoxic HA-1 tumor cells in vitro compared to 22,HA-1 cells,significantly enhanced cytotoxicity
same,RHT (Relative Hypoxic Cytoxicity),HA-1 cells,2
same,HCR (Hypoxic Cytoxicity Ratio),HA-1 cells,140
same,E1/2,[1],−133 mV
"CCN(CC)CCCNc1n[n+]([O-])c2ccccc2[n+]1[O-] [Compound 18a, 3-(3-N,N-diethylaminopropylamino)-1,2,4-benzotriazine 1,4-dioxide]",logP,[2],-1.34
same,solubility,Solubility; read-out: Solubility,> 181 mM
same,cytotoxicity against hypoxic HA-1 tumor cells in vitro compared to 22,HA-1 cells,significantly enhanced cytotoxicity
same,LD50,Determination of LD50,250 µmol/kg
same,E1/2,[1],−348 mV
"CCN(CC)CCNc1n[n+]([O-])c2cc([N+](=O)[O-])ccc2[n+]1[O-].Cl [Compound 21, 7-nitro-3-(2-N,N-diethylaminoethylamino)-1,2,4-benzotriazine 1,4-dioxide hydrochloride]",Log P,[2],−0.20
same,solubility,Solubility,96.40 mM
same,cytotoxicity against hypoxic HA-1 tumor cells in vitro compared to 22,HA-1 cells,significantly enhanced cytotoxicity
same,RHT (Relative Hypoxic Cytoxicity),HA-1 cells,3
same,HCR (Hypoxic Cytoxicity Ratio),HA-1 cells,211
same,LD50,BALB/c female mice,0.40
same,E1/2,[1],−140 mV
"Nc1n[n+]([O-])c2ccccc2[n+]1[O-] [Compound 22, 3-amino-1,2,4-benzotriazine 1,4-dioxide]","drug concentration required under hypoxia for equal cell killing, as share of the aerobic concentration",[3],1 to 2%
same,cell survival after drug treatment alone,[4]; 1.0 h preirradiation exposure,approximately 32%
same,cell survival after drug treatment alone,[4]; 1.5 h postirradiation treatment,23%
same,cell survival after drug treatment alone,[4]; 1.5 h preirradiation exposure,~19%
same,cell survival after drug treatment alone,[4]; 2.0 h preirradiation exposure,~8%
same,cell survival after drug treatment alone,[4]; 2.5 h preirradiation exposure,~2%
same,Do of the radiation survival curve of treated cells,"[4]; pooled data of treated cells, control 1.34 Gy, 95% confidence limits 0.73-0.88 Gy",0.80 Gy
same,effect on growth delay of irradiated tumors,SCCVII tumor [5],large increase in effect compared to radiation or drug alone
same,"effect on radiation response, clonogenic tumor cell survival",SCCVII tumor [5],large enhancement of the radiation response
same,factor by which survival was reduced,SCCVII tumor [6]; combination with hydralazine,10^3
same,"cell killing in the SCCVII tumor, agent alone",SCCVII tumor [6]; single agent,neither hydralazine nor the aforementioned benzotriazine compound produced any significant cell killing
same,tumor cell killing combined with radiation compared to radiation only,SCCVII carcinomas,enhanced cell killing compared to radiation only
"O=C(Cn1ccnc1[N+](=O)[O-])NCCO [SR 2508, reference compound]",effect on growth delay of irradiated tumors,SCCVII tumor [5],no radiosensitizing effect
same,"effect on radiation response, clonogenic tumor cell survival",SCCVII tumor [5],no effect
